Test results from patent publication US12516295B2, “Generation of pancreatic progenitor cells and beta cells from human pluripotent stem cells” (The Penn State Research Foundation, priority 2018, dated 2026).

Tests used:
H1 hESCs = test: Growth-factor-free differentiation of hPSCs to SOX17+ DE cells, SOX17 expression by flow cytometry; assay type: cell-based, human; conditions: for effect on DE differentiation (result in words): H1 hESCs differentiated with CH, CH+DM or CH+A83-01, day 4 SOX17 by flow cytometry (FIG. 1F); for percentage of cells expressing SOX17: flow cytometry (FIG. 1C); for SOX17+ cells: H1 hESCs, dynamics (FIG. 1E; CH in presence or absence of DM)
Protocol: (§1) FIG. 1. Growth-factor-free differentiation of SOX17+ DE cells from hPSCs via CH and DM treatment. (A) Human 19-9-11 iPSCs were treated with 6 μM CH at day 0. After treatment, cells were collected from 3 to 21 hours (T) and RNA-seq was performed. The bars for each set from left to right are: T0, T3, T6, T9, T12, T15, T18, T21. (B) Schematic of protocol for defined, growth-factor-free differentiation of hPSCs to SOX17+ cells via treatment with CH and DM. (C-D) H1 hESCs were cultured as indicated in 2B with 1 μM DM plus different CH concentration, ranging from 2 to 10 μM. (C) On day 4 of differentiation, cells were analyzed for SOX17 expression by flow cytometry. (D) Cells were immunostained with a SOX17 antibody on day 4 of differentiation under 6 μM CH plus 1 μM DM treatment. (E) H1 hESCs were differentiated with CH in the presence or absence of DM. From day 1 to day 4, cells were analyzed for SOX17 expression by flow cytometry. (F) H1 hESCs were differentiated with CH, CH plus DM or CH plus A83-01. On day 4 of differentiation, cells were analyzed for SOX17 expression by flow cytometry.
Stage 1: On day 0, medium was changed with RPMI supplemented with 1 μM Dorsomorphin (DM) and 2-10 μM CHIR99021(CH). At day 1-4, medium was changed with RPMI supplemented with B-27 without insulin.
Cells were dissociated into single cells with Accutase for 10 min and then fixed with 1% paraformaldehyde for 30 min at room temperature and stained with primary and secondary antibodies in PBS plus 0.1% Triton X-100 and 0.5% BSA. Data were collected on a BD ACCURI C6 PLUS flow cytometer (BD Biosciences) and analyzed using FlowJo 10. FACS gating was based on the corresponding isotype antibody control.
Here we describe a differentiation protocol without using any growth factors. We first initiated DE differentiation by treating hPSCs with CH+DM. To determine optimal CH concentration for DE differentiation, H1 cells were treated by 2 to 10 μM CH in RPMI for 24 hours, followed by 3 days culture in RPMI with 2% B-27 minus insulin supplement. We analyzed the percentage of SOX17+ cells on day 4 of differentiation via flow cytometry. […] The optimal DE differentiation was achieved when hPSCs were treated by 4 or 6 μM CH (FIG. 1C). On day 4, 85% of cells expressing SOX17 when cells were treated with 6 μM CH plus 1 μM DM, whereas the percentage of cells expressing SOX17 decreased to 20% when treated with 10 μM CH plus 1 μM DM (FIG. 1C). […] Next, the dynamics of DE differentiation was investigated by analyzing SOX17 expression from day 1 to day 4. During differentiation, SOX17+ cells increased from 0% on day 1 to 78% on day 4, indicating DE was gradually developed (FIG. 1E). Furthermore, to evaluate whether our novel DE differentiation protocol depends on endogenous TGFbeta pathway, we differentiated H1 hESCs with CH, CH+DM, and CH+A83-01 (a TGFbeta inhibitor).

19-9-11 iPSCs = test: RNA-seq expression profile during CH induced differentiation; assay type: cell-based, human; conditions: 6 μM CH
Protocol: as §1
To understand RNA expression profile during CH induced differentiation, we collected cells following CH treatment every three hours for a total of eight different time points after differentiation (FIG. 1A).

SMILES | effect on DE differentiation (result in words) (H1 hESCs) | Sox17+ cells generated (H1 hESCs; 10 μM CH treatment (discussion)) | Sox17+ cells generated (H1 hESCs; 4 or 6 μM CH treatment (discussion)) | DE differentiation (result in words) (H1 hESCs; H1 cells, 2 to 10 μM CH in RPMI for 24 hours, SOX17+ cells on day 4) | percentage of cells expressing SOX17 (H1 hESCs; H1 cells, day 4, 6 μM CH plus 1 μM DM) | percentage of cells expressing SOX17 (H1 hESCs; H1 cells, day 4, 10 μM CH plus 1 μM DM) | SOX17+ cells (H1 hESCs; day 1 of differentiation) | SOX17+ cells (H1 hESCs; day 4 of differentiation) | Nodal expression (19-9-11 iPSCs; 21 hours after treatment, RNA-seq) | RNA expression of several components in the TGF-β signaling pathway (19-9-11 iPSCs; samples every three hours over 21 hours, RNA-seq (FIG. 1A))
Cc1cccc(-c2nn(C(=S)Nc3ccccc3)cc2-c2ccnc3ccccc23)n1 [A83-01] | abolished DE differentiation |  |  |  |  |  |  |  |  | 
Cc1cnc(-c2cnc(NCCNc3ccc(C#N)cn3)nc2-c2ccc(Cl)cc2Cl)[nH]1 [CH, 6-[[2-[[4-(2,4-Dichlorophenyl)-5-(5-methyl-1H-imidazol-2-yl)-2-pyrimidinyl]amino]ethyl]amino]-3-pyridinecarbonitrile] |  | 6% | more than 74% | induced DE differentiation in a dose-dependent manner | 85% | 20% | 0% | 78% | upregulated | increased
c1cc(-c2cnn3cc(-c4ccc(OCCN5CCCCC5)cc4)cnc23)ccn1 [DM, 6-[4-(2-Piperidin-1-ylethoxy)phenyl]-3-pyridin-4-ylpyrazolo[1,5-a]pyrimidine] | promoted this differentiation |  |  |  |  |  |  |  |  | 
